From the NIST ThermoML archive (doi:10.1016/j.jct.2010.12.028) come the findings set out here.

± gives the expanded uncertainty stated by the source.

For orientation: speed of sound means how fast a sound wave travels through the sample. A word on the mass density: it is mass per unit of volume.

For the series the following is noted: 298.15 K, 101.33 kPa, Liquid; for speed of sound: Sing-around technique in a fixed-path interferometer; for mass density: Vibrating tube method.

As for `Cc1ccccc1N` [2-methylaniline], the speed of sound is reported as 1602.6 ± 2.4 m/s and the mass density stood at 994.351 ± 0.24 kg/m3.

Turning to `Cc1ccccn1` [2-methylpyridine], the speed of sound was 1380.1 ± 2.9 m/s and the mass density came out at 939.802 ± 0.77 kg/m3.

For `Cc1cccnc1` [3-methylpyridine], the speed of sound is on record as 1424 ± 2.3 m/s and the mass density is on record as 952.002 ± 0.24 kg/m3.

On to `Cc1ccncc1` [4-methylpyridine], for which the speed of sound worked out at 1431.5 ± 2.3 m/s and the mass density was 950.179 ± 0.24 kg/m3.

With `c1ccncc1` [pyridine], the speed of sound turned out to be 1417.8 ± 2.3 m/s and the mass density stood at 978.249 ± 0.24 kg/m3.
